Some test systems named below: SK-MEL-5; SNB-75; NCI-H23; HCC 2998; HCT-15; MCF7; OVCAR-5; T47D; SNB-19; NCI-H522; UACC-62; CAKI-1; SW-620; NCI-H226; BT-549; DU-145; HCT-116; ACHN; A549; OVCAR-8.
Holding throughout (test): NCI tumour cell line growth inhibition, 48 h

SMILES strings stand for the structures.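 Tested at 5 concentrations; 48 h exposure; 96-well plates; endpoints linearly interpolated, else capped at highest concentration. GI50: concentration for 50% inhibition of growth.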 Active and inactive are the calls of the source. Rule as the data show it: active = GI50 up to about 1.1 µM and inactive = higher. Where only a bound is given, the exact number is not on record here.

3 compounds from ChEMBL document CHEMBL1201862, “PubChem BioAssay data set” (2004) can be followed below.

With `CC(=O)NCCCCNCCCNC(C)=O`, the GI50 in the test with SK-MEL-5 was > 100 µM (inactive); in the test with SNB-75, > 100 µM (inactive); in the test with NCI-H23 it was > 100 µM (inactive); in the test with HCC 2998, > 100 µM (inactive); in the test on HCT-15, > 100 µM; in the test with MCF7, > 100 µM (inactive). Moreover, the GI50 with OVCAR-5, with T47D, with SNB-19, with NCI-H522, with UACC-62 and with CAKI-1 was > 100 µM (inactive) in each case. Besides, the GI50 in the test with SW-620, in the test on NCI-H226, in the test with BT-549, in the test on DU-145, in the test on HCT-116 and in the test on ACHN was > 100 µM (inactive) each time. For the same compound, the GI50 with A549 and with OVCAR-8 was > 100 µM (inactive) throughout.

`COC1=CC(=O)c2c(ccc3ncnc(N)c23)C1=O`: the GI50 in the test on SK-MEL-5 was 1.64 µM (inactive); in the test with SNB-75, 3.57 µM (inactive); with NCI-H23, 1.54 µM (inactive); in the test with HCC 2998 it was 6.03 µM (inactive); in the test on HCT-15 it was 1.99 µM; with MCF7, 1.54 µM (inactive). Moreover, the GI50 with OVCAR-5 is 2 µM (inactive); in the test with T47D, 1.11 µM (active); with SNB-19, 2.38 µM (inactive); in the test on NCI-H522 it was 2.42 µM (inactive); with UACC-62, 1.81 µM (inactive); with CAKI-1, 1.36 µM (inactive). Further, the GI50 in the test with SW-620 was 1.93 µM (inactive); with NCI-H226, 2.2 µM (inactive); with BT-549, 1.79 µM (inactive); in the test on DU-145, 1.82 µM (inactive); with HCT-116, 1.77 µM (inactive); in the test with ACHN, 1.57 µM (inactive). The GI50 with A549 was 4.05 µM (inactive); with OVCAR-8, 2.11 µM (inactive).

`COC(=O)C1=C(OC(=O)/C(=C/c2ccc(Cl)cc2)c2ccccc2)C(C(=O)OC)[C@@]2(O)[C@@H](C(=O)OC)[C@H](C)C[C@@H]1[C@@H]2C(=O)OC` (stereo not given in full): the GI50 in the test with SK-MEL-5 was > 100 µM (inactive); in the test with SNB-75 it was 29.6 µM (inactive); with NCI-H23 it was 9.73 µM (inactive); with HCC 2998, > 100 µM (inactive); in the test on HCT-15, > 100 µM; in the test on MCF7 it was > 100 µM (inactive). Moreover, the GI50 in the test with OVCAR-5 was > 100 µM (inactive); in the test on T47D, > 100 µM (inactive); with SNB-19 it was 77.8 µM (inactive); in the test on NCI-H522 it was 6 µM (inactive); in the test on UACC-62, 83.6 µM (inactive); in the test with CAKI-1, > 100 µM (inactive). The GI50 with SW-620 was > 100 µM (inactive); in the test with NCI-H226 it was > 100 µM (inactive); in the test with BT-549, 22.2 µM (inactive); with DU-145 it was > 100 µM (inactive); in the test on HCT-116 it was > 100 µM (inactive); with ACHN, > 100 µM (inactive). Further, the figures for the GI50 in the test with A549 and in the test on OVCAR-8 were 7.85 µM (inactive) and 4.45 µM (inactive), respectively.
